TGI data for eight molecules are collected here from PubChem BioAssay (NCI).

Structures are written as SMILES.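 All cell lines were grown in 96-well plates and treated with compound for 48 hours. The concentration for full growth arrest is given as TGI.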 Bounds are passed on as bounds.

Holding throughout (assay): NCI tumour cell line growth inhibition, 48 h
Experiment [1] deals with HT29 colon.
The test system of experiment [2] is SNB-19 CNS.
Experiment [3] relates to NCI-H23 lung.
The test system of experiment [4] is UACC-62 melanoma.
For experiment [5], the system named is CCRF-CEM leukemia.
The test system of experiment [6] is MOLT-4 leukemia.
Experiment [7] deals with T-47D breast.
The test system of experiment [8] is SF-295 CNS.
Experiment [9] has as its system NCI-H522 lung.
Experiment [10] concerns 786-0 renal.
In experiment [11] the test system is UACC-257 melanoma.
The test system of experiment [12] is HOP-92 NSCLC.
For experiment [13], the system named is NCI-H226 lung.
Experiment [14] concerns MALME-3M melanoma.
For experiment [15], the system named is BT-549 breast.
The test system of experiment [16] is SW-620 colon.
In experiment [17] the test system is TK-10 renal.
Experiment [18] relates to NCI-H460 lung.
In experiment [19] the test system is SK-OV-3 ovarian.

Regarding `C=CCOc1ccc(/C(N=Nc2ccccc2)=N/NC(=O)c2ccccc2)cc1OC`, the TGI in experiment [1], in experiment [2], in [3], in experiment [4], in experiment [5] and in experiment [6] was more than 100 µM each time. Besides, the TGI in experiment [7], in [8], in experiment [9], in experiment [10], in experiment [11] and in [12] was more than 100 µM each time. Moreover, the TGI in experiment [13], in experiment [14], in experiment [15], in experiment [16], in experiment [17] and in experiment [18] was more than 100 µM in each case.
For the molecule `COc1cc(/C=C/C(=O)OC2C(O)C3CC(OC(=O)c4cc(OC)c(OC)c(OC)c4)CC2N3C)cc(OC)c1OC` (configuration not stated), the TGI is more than 50 µM in experiment [1]; 39.9 µM in experiment [2]; more than 50 µM in experiment [3]; more than 50 µM in experiment [4]; more than 50 µM in experiment [5]; more than 50 µM in experiment [6]. The TGI in [7] is 43.7 µM; in experiment [8], more than 50 µM; in experiment [9] it was more than 50 µM; in experiment [10], more than 50 µM; in experiment [11], more than 50 µM; in [12], more than 50 µM. In addition, the TGI in [19], in experiment [13], in experiment [15], in experiment [16], in experiment [17] and in experiment [18] was more than 50 µM throughout.
Consider `CC(C)C1OC2(C)OC(=N)C1(C#N)C(C#N)(C#N)C2C` (configuration not stated), for which the TGI in experiment [1] was 41 µM; in [3], more than 100 µM; in experiment [4], 80.5 µM; in [5] it was 51.4 µM; in experiment [6] it was more than 100 µM; in experiment [7], 33.5 µM. Moreover, the TGI was more than 100 µM in experiment [8]; 51.7 µM in experiment [10]; more than 100 µM in experiment [11]; 34.7 µM in experiment [12]; more than 100 µM in experiment [19]; more than 100 µM in [13]. The TGI was 57.8 µM in experiment [14]; more than 100 µM in experiment [15]; 80.5 µM in [16]; more than 100 µM in experiment [17]; 33.8 µM in experiment [18].
On to `COC(=O)C1CC=C(SC(=O)c2ccccc2)N1C(=O)c1ccccc1` (configuration not stated), for which the TGI in experiment [1], in experiment [2], in experiment [3], in [4], in experiment [6] and in experiment [7] was more than 100 µM each time. Besides, the TGI in [8], in experiment [9], in [10], in experiment [11], in experiment [12] and in experiment [19] was more than 100 µM in each case. In addition, the TGI in experiment [14], in experiment [15], in experiment [16], in experiment [17] and in [18] was more than 100 µM each time.
On to `O=C1CCCCC1=C(I)I`, for which the TGI is 24.9 µM in experiment [2]; 33.9 µM in experiment [4]; 73.3 µM in experiment [5]; 58.3 µM in experiment [6]; 28.7 µM in experiment [7]; 65.8 µM in experiment [8]. Besides, the TGI stood at 31.9 µM in experiment [10]; 29 µM in [12]; 56.8 µM in [19]; 42.7 µM in experiment [13]; 27.5 µM in experiment [14]; 26.8 µM in [15]. The TGI was 31.2 µM in experiment [16] and 44.1 µM in experiment [18].
Take `CSc1nc(-c2ccc(C)cc2)c(C#N)c(=O)[nH]1`: the TGI in experiment [1], in [2], in [3], in experiment [4], in experiment [5] and in [6] was more than 100 µM each time. Moreover, the TGI in [7], in experiment [8], in [9], in experiment [10], in experiment [11] and in experiment [12] was more than 100 µM each time. The TGI in [19], in [13], in experiment [15], in experiment [16], in [17] and in [18] was more than 100 µM in each case.
Consider `Cc1nn(C(=O)c2ccncc2)c2c1C(c1ccc(Cl)cc1)SC(N)=N2` (configuration not stated), for which the TGI in experiment [1], in experiment [2], in experiment [3], in experiment [4], in experiment [5] and in experiment [6] was more than 10 µM in each case. The TGI in experiment [7], in experiment [8], in [10], in experiment [11], in experiment [12] and in experiment [13] was more than 10 µM each time. Besides, the TGI in experiment [14], in experiment [15], in experiment [16], in experiment [17] and in [18] was more than 10 µM throughout.
Regarding `Cc1nc(-n2[nH]c(C)c(CCO)c2=O)[nH]c(=O)c1CCO`, the TGI in [1], in [2], in experiment [3], in experiment [4], in [5] and in [6] was more than 100 µM throughout. Also, the TGI in experiment [7], in experiment [8], in [9], in experiment [10], in experiment [11] and in [12] was more than 100 µM throughout. Moreover, the TGI in experiment [19], in [13], in experiment [15], in experiment [16], in experiment [17] and in [18] was more than 100 µM throughout.
